“And” between values parts separate entries of the source, which are not always exact repeats. Identical values can stand only once. Inconclusive results and toxic doses are left out.

In this test the test system is CD2F1 mice, L1210 leukemia sc, survival T/C. In words: NCI In Vivo Anticancer Drug Screen. Data for tumor model L1210 Leukemia (subcutaneous) in CD2F1 (CDF1) mice. The settings on record: endpoint: median survival time, higher = longer survival. The gist of the method: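 Mice with transplanted tumor dosed; survival/tumor size read; T/C vs vehicle controls.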

On to `O=P1(NCCCl)OCCCN1CCCl` (stereo unspecified), for which the T/C (dose: 6.25 mg/kg/injection, schedule: Q01DX009 (ip), vehicle: saline) is 122 % of control; the T/C (dose: 6.25 mg/kg/injection, schedule: Q01DX009 (sc), vehicle: saline) is 116 % of control; the T/C (dose: 12.5 mg/kg/injection, schedule: Q01DX009 (ip), vehicle: saline) was 151 % of control; the T/C (dose: 25.0 mg/kg/injection, schedule: Q01DX009 (ip), vehicle: saline) was 161 % of control; the T/C (dose: 50.0 mg/kg/injection, schedule: Q01DX009 (ip), vehicle: saline) is 169 % of control and 188 % of control; the T/C (dose: 66.7 mg/kg/injection, schedule: Q01DX009 (ip), vehicle: saline) is 179 % of control. For the same compound, the T/C is, setting by setting: (dose: 66.7 mg/kg/injection, schedule: Q01DX009 (sc), vehicle: saline) 197 % of control; (dose: 100.0 mg/kg/injection, schedule: Q01DX009 (ip), vehicle: saline) 188 % of control and 235 % of control; (dose: 100.0 mg/kg/injection, schedule: Q01DX009 (sc), vehicle: saline) 155 % of control and 182 % of control and 232 % of control; (dose: 133.4 mg/kg/injection, schedule: Q01DX009 (sc), vehicle: saline) 265 % of control; (dose: 150.0 mg/kg/injection, schedule: Q01DX009 (ip), vehicle: saline) 247 % of control; (dose: 150.0 mg/kg/injection, schedule: Q01DX009 (sc), vehicle: saline) 258 % of control. Besides, the T/C is, setting by setting: (dose: 200.0 mg/kg/injection, schedule: Q01DX001 (sc), vehicle: water) 187 % of control and 188 % of control; (dose: 300.0 mg/kg/injection, schedule: Q01DX001 (sc), vehicle: water) 211 % of control and 217 % of control; (dose: 300.0 mg/kg/injection, schedule: Q01DX009 (sc), vehicle: saline) 176 % of control; (dose: 400.0 mg/kg/injection, schedule: Q01DX001 (sc), vehicle: water) 241 % of control; (dose: 400.0 mg/kg/injection, schedule: Q01DX009 (ip), vehicle: saline) 98 % of control; (dose: 400.0 mg/kg/injection, schedule: Q01DX009 (sc), vehicle: saline) 108 % of control. Further, the T/C reads like this: (dose: 500.0 mg/kg/injection, schedule: Q01DX001 (sc), vehicle: water) 241 % of control and 244 % of control; (dose: 600.0 mg/kg/injection, schedule: Q01DX001 (sc), vehicle: water) 300 % of control and 302 % of control; (dose: 700.0 mg/kg/injection, schedule: Q01DX001 (sc), vehicle: water) 264 % of control and 290 % of control.
As to `CCN(CC)c1ccc2cc3ccc(=[N+](CC)CC)cc-3oc2c1`, the T/C (dose: 0.5 mg/kg/injection, schedule: Q01DX Z (sc), vehicle: methylcellulose (MC)) was 100 % of control; the T/C (dose: 1.0 mg/kg/injection, schedule: Q01DX Z (sc), vehicle: methylcellulose (MC)) is 100 % of control; the T/C (dose: 2.0 mg/kg/injection, schedule: Q01DX Z (sc), vehicle: methylcellulose (MC)) was 100 % of control; the T/C (dose: 4.0 mg/kg/injection, schedule: Q01DX Z (sc), vehicle: methylcellulose (MC)) is 100 % of control; the T/C (dose: 8.0 mg/kg/injection, schedule: Q01DX Z (sc), vehicle: methylcellulose (MC)) was 100 % of control.

These data come from PubChem BioAssay AID258 (DTP/NCI, 2004).
